Data from PubChem BioAssay (NCI).
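Dose response: 5 concentrations. Exposure: 48 h. Format: 96-well plates. Endpoint: linear interpolation; highest concentration if not reached. Abbreviation: GI50, concentration required for 50% inhibition of growth. The concentration for full growth arrest is given as TGI.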

What was measured:
Assay in all cases: DTP human tumour cell line panel, 48 h
BT-549 breast = tested on: BT-549 breast
T-47D breast = tested on: T-47D breast
MOLT-4 leukemia = tested on: MOLT-4 leukemia
DU-145 prostate = tested on: DU-145 prostate
NCI-H226 lung = tested on: NCI-H226 lung
A549 NSCLC = tested on: A549 NSCLC
KM12 colon = tested on: KM12 colon
HS 578T breast = tested on: HS 578T breast
MDA-MB-231 breast = tested on: MDA-MB-231 breast
ACHN renal = tested on: ACHN renal
PC-3 prostate = tested on: PC-3 prostate
SF-539 CNS = tested on: SF-539 CNS
HOP-62 NSCLC = tested on: HOP-62 NSCLC
A498 renal = tested on: A498 renal
HT29 colon = tested on: HT29 colon
NCI-H460 lung = tested on: NCI-H460 lung
CAKI-1 renal = tested on: CAKI-1 renal
NCI/ADR-RES ovarian = tested on: NCI/ADR-RES ovarian
OVCAR-5 ovarian = tested on: OVCAR-5 ovarian
RPMI-8226 leukemia = tested on: RPMI-8226 leukemia
COLO 205 colon = tested on: COLO 205 colon
NCI-H23 lung = tested on: NCI-H23 lung
OVCAR-8 ovarian = tested on: OVCAR-8 ovarian
UACC-62 melanoma = tested on: UACC-62 melanoma
OVCAR-3 ovarian = tested on: OVCAR-3 ovarian
SR leukemia = tested on: SR leukemia
U251 CNS = tested on: U251 CNS
NCI-H522 lung = tested on: NCI-H522 lung
MCF7 breast = tested on: MCF7 breast
UACC-257 melanoma = tested on: UACC-257 melanoma
SK-MEL-2 melanoma = tested on: SK-MEL-2 melanoma
HCT-15 colon = tested on: HCT-15 colon
SNB-19 CNS = tested on: SNB-19 CNS
SK-OV-3 ovarian = tested on: SK-OV-3 ovarian
MALME-3M melanoma = tested on: MALME-3M melanoma
SK-MEL-28 melanoma = tested on: SK-MEL-28 melanoma
HCC-2998 colon = tested on: HCC-2998 colon
SF-268 CNS = tested on: SF-268 CNS
SF-295 CNS = tested on: SF-295 CNS
RXF 393 renal = tested on: RXF 393 renal
SN12C renal = tested on: SN12C renal
SW-620 colon = tested on: SW-620 colon
IGROV1 ovarian = tested on: IGROV1 ovarian
HL-60(TB) leukemia = tested on: HL-60(TB) leukemia
HOP-92 NSCLC = tested on: HOP-92 NSCLC
MDA-MB-435 = tested on: MDA-MB-435
SNB-75 CNS = tested on: SNB-75 CNS
EKVX NSCLC = tested on: EKVX NSCLC
K-562 leukemia = tested on: K-562 leukemia
OVCAR-4 ovarian = tested on: OVCAR-4 ovarian
HCT-116 colon = tested on: HCT-116 colon
CCRF-CEM leukemia = tested on: CCRF-CEM leukemia
TK-10 renal = tested on: TK-10 renal
LOX IMVI melanoma = tested on: LOX IMVI melanoma
UO-31 renal = tested on: UO-31 renal
786-0 renal = tested on: 786-0 renal
SK-MEL-5 melanoma = tested on: SK-MEL-5 melanoma
M14 melanoma = tested on: M14 melanoma

CC(C)(C)Nc1nc2c(OCCc3ccccc3)cccn2c1-c1cccc(F)c1
GI50 (BT-549 breast): 10.3 µM
TGI (BT-549 breast): 36.3 µM
GI50 (T-47D breast): 3.55 µM
TGI (T-47D breast): > 100 µM
GI50 (MOLT-4 leukemia): 3.22 µM
TGI (MOLT-4 leukemia): > 100 µM
GI50 (DU-145 prostate): 9.13 µM
TGI (DU-145 prostate): > 100 µM
GI50 (NCI-H226 lung): 6.29 µM
TGI (NCI-H226 lung): 63 µM
GI50 (A549 NSCLC): 4.4 µM
TGI (A549 NSCLC): > 100 µM
GI50 (KM12 colon): 4.13 µM
TGI (KM12 colon): > 100 µM
GI50 (HS 578T breast): 10.1 µM
TGI (HS 578T breast): 64.2 µM
GI50 (MDA-MB-231 breast): 10.2 µM
TGI (MDA-MB-231 breast): 26.2 µM
GI50 (ACHN renal): 4.63 µM
TGI (ACHN renal): > 100 µM
GI50 (PC-3 prostate): 4.91 µM
TGI (PC-3 prostate): > 100 µM
GI50 (SF-539 CNS): 10.1 µM
TGI (SF-539 CNS): 23.1 µM
GI50 (HOP-62 NSCLC): 11.8 µM
TGI (HOP-62 NSCLC): 42 µM
GI50 (A498 renal): 15.8 µM
TGI (A498 renal): 65.1 µM
GI50 (HT29 colon): 5.02 µM
TGI (HT29 colon): 24 µM
GI50 (NCI-H460 lung): 5.5 µM
TGI (NCI-H460 lung): 24.8 µM
GI50 (CAKI-1 renal): 5.22 µM
TGI (CAKI-1 renal): > 100 µM
GI50 (NCI/ADR-RES ovarian): 4.25 µM
TGI (NCI/ADR-RES ovarian): > 100 µM
GI50 (OVCAR-5 ovarian): 8.58 µM
TGI (OVCAR-5 ovarian): > 100 µM
GI50 (RPMI-8226 leukemia): 3.7 µM
TGI (RPMI-8226 leukemia): 62.1 µM
GI50 (COLO 205 colon): 8.88 µM
TGI (COLO 205 colon): 26.8 µM
GI50 (NCI-H23 lung): 4.13 µM
TGI (NCI-H23 lung): 34.8 µM
GI50 (OVCAR-8 ovarian): 9.39 µM
TGI (OVCAR-8 ovarian): > 100 µM
GI50 (UACC-62 melanoma): 2.92 µM
TGI (UACC-62 melanoma): 12.2 µM
GI50 (OVCAR-3 ovarian): 3.91 µM
TGI (OVCAR-3 ovarian): 39 µM
GI50 (SR leukemia): 4.48 µM
TGI (SR leukemia): > 100 µM
GI50 (U251 CNS): 6.19 µM
TGI (U251 CNS): 25.2 µM
GI50 (NCI-H522 lung): 4.17 µM
TGI (NCI-H522 lung): 42.3 µM
GI50 (MCF7 breast): 4.34 µM
TGI (MCF7 breast): 32.4 µM
GI50 (UACC-257 melanoma): 7.56 µM
TGI (UACC-257 melanoma): > 100 µM
GI50 (SK-MEL-2 melanoma): 3.11 µM
TGI (SK-MEL-2 melanoma): 12.4 µM
GI50 (HCT-15 colon): 3.51 µM
TGI (HCT-15 colon): 14.2 µM
GI50 (SNB-19 CNS): 5.81 µM
TGI (SNB-19 CNS): > 100 µM
GI50 (SK-OV-3 ovarian): 19.9 µM
TGI (SK-OV-3 ovarian): > 100 µM
GI50 (MALME-3M melanoma): 3.6 µM
TGI (MALME-3M melanoma): 22.8 µM
GI50 (SK-MEL-28 melanoma): 3.93 µM
TGI (SK-MEL-28 melanoma): 74.6 µM
GI50 (HCC-2998 colon): 4.81 µM
TGI (HCC-2998 colon): 69.6 µM
GI50 (SF-268 CNS): 7.84 µM
TGI (SF-268 CNS): > 100 µM
GI50 (SF-295 CNS): 4.41 µM
TGI (SF-295 CNS): 22 µM
GI50 (RXF 393 renal): 8.78 µM
TGI (RXF 393 renal): 29.2 µM
GI50 (SN12C renal): 3.99 µM
TGI (SN12C renal): > 100 µM
GI50 (SW-620 colon): 11.3 µM
TGI (SW-620 colon): 87.1 µM
GI50 (IGROV1 ovarian): 8.99 µM
TGI (IGROV1 ovarian): > 100 µM
GI50 (HL-60(TB) leukemia): 3.78 µM
TGI (HL-60(TB) leukemia): 18.8 µM
GI50 (HOP-92 NSCLC): 3.3 µM
TGI (HOP-92 NSCLC): > 100 µM
GI50 (MDA-MB-435): 5.07 µM
TGI (MDA-MB-435): 27.4 µM
GI50 (SNB-75 CNS): 16.1 µM
TGI (SNB-75 CNS): > 100 µM
GI50 (EKVX NSCLC): 3.44 µM
TGI (EKVX NSCLC): > 100 µM
GI50 (K-562 leukemia): 3.49 µM
TGI (K-562 leukemia): > 100 µM
GI50 (OVCAR-4 ovarian): 4.52 µM
TGI (OVCAR-4 ovarian): > 100 µM
GI50 (HCT-116 colon): 4.12 µM
TGI (HCT-116 colon): 36 µM
GI50 (CCRF-CEM leukemia): 6.53 µM
TGI (CCRF-CEM leukemia): > 100 µM
GI50 (TK-10 renal): 14.2 µM
TGI (TK-10 renal): > 100 µM
GI50 (LOX IMVI melanoma): 5.02 µM
TGI (LOX IMVI melanoma): 17 µM
GI50 (UO-31 renal): 2.75 µM
TGI (UO-31 renal): 19.7 µM
GI50 (786-0 renal): 13.5 µM
TGI (786-0 renal): 52.8 µM
GI50 (SK-MEL-5 melanoma): 5.26 µM
TGI (SK-MEL-5 melanoma): 17.7 µM
GI50 (M14 melanoma): 6.79 µM
TGI (M14 melanoma): 32.1 µM
